In patent US12661415B2, “Isoindolinone compounds and imaging agents for imaging Huntingtin protein” (CHDI Foundation, Inc., priority 2021, dated 2026):

Key:
[1] = Unbound brain fraction (fu,brain) in mouse brain by equilibrium dialysis; type: in vitro ADME; conditions: 20% mouse brain homogenate, 5 μM, equilibrium dialysis 6 h at 37° C., average of triplicate
Protocol: Compounds were tested for unbounded brain fraction (or free fraction in brain, fu,brain). It is an accepted standard in the CNS PET imaging field that compounds with low unbound fraction in brain (<5%) likely have high non-specific binding background that is undesirable for the detection of target binding. As a result, fu,brain is an important property in the design of PET ligands for brain imaging [see Zhang et al., Design and selection parameters to accelerate the discovery of novel central nervous system positron emission tomography (PET) ligands and their application in the development of a novel phosphodiesterase 2A PET ligand. J Med Chem 2013, 56 (11), 4568-79; Liu et al., Imaging Mutant Huntingtin Aggregates: Development of a Potential PET Ligand. J Med Chem 2020, 63 (15), 8608-8633].
Determining fu,brain in Mouse Brain by Equilibrium Dialysis. Dialysis membranes (12-14 kDa) (HTDialysis, Connecticut) were soaked in phosphate buffer (10 mM potassium phosphate and 0.8% sodium chloride buffer, pH 7.4 at 37° C.) for a minimum of 1 h, at this time ethanol was added (final concentration of 20% v/v) and membranes continued to soak for 30 min Mouse brain tissue was diluted in phosphate buffer in a […] (w/v) and homogenised using a Precellys 24 (Stretton Scientific, UK) to achieve a final concentration of 20% brain homogenate.
Test compounds prepared as DMSO stocks at 0.5 mM are diluted into brain homogenate to achieve 5 μM final substrate concentration (1% DMSO) and a t=0 sample was prepared by sampling 50 μL of into 400 μL of quench solution (Acetonitrile containing 0.1% formic acid and sulfisoxazole/tolbutamide/imipramine/labetalol 200 nM). Samples were matrix matched with the addition of 50 μL of assay buffer. The HTDialysis Teflon blocks (HTDialysis, Connecticut) were assembled with pre-soaked membrane between each receiver and donor well and clamped in the stainless steel pressure plate (HTDialysis, Connecticut). The lower compartment (acceptor side) was dosed with 120 μL of buffer and the upper compartment (donor side) was dosed with 120 μL of compound in homogenate. All test compounds and controls were completed in triplicate. The HT dialysis plate was sealed and incubated for 6 h at 37° C. shaking at 250 rpm.
Following the incubation, 50 μL of sample was removed from all donor and acceptor wells and transferred into a quench plate containing 400 μL of quench solution. All samples were matrix matched with 50 μL of the alternate blank matrix. Analytical samples were diluted 1:1 with water using the Janus Robot and analysed by LC-MS/MS.
Peak areas of donor and acceptor compartments were compared to determine percent unbound (% fu) and the average of triplicate measurements was reported. Reference T0 sample was used to calculate sample recovery (%). Control compounds were compared with historic and literature values to ensure assay functionality.

[2] = biological target: T1, MBP-HTT(1-89)Q46-His(6×) (Exon1-Q46) protein aggregates (Homo sapiens, UniProt P42858, INS38QQQQQQQQQQQQQQQQQQQQQQQQQ); assay: Exon1-Q46 radioligand binding assay (RBA); conditions: aggregated Exon1-Q46 1 μM; 0.3 nM ligand [3H3-methyl]-5-((5-methoxypyridin-2-yl)methoxy)-2-(pyrazin-2-yl)benzo[d]oxazole; 60 minutes at 37° C.; read-out: Potency Range (IC50)
T1 construct: MBP-HTT(1-89)Q46-His(6×); His(6×) (C); made in house
Protocol: Exon1-Q46 Radioligand Binding Assay
For radioligand binding assays (RBA) MBP-HTT(1-89)Q46-His(6×) (“Exon1-Q46”) protein was generated based on a previous publication (Scherzinger et al. Cell, Vol. 90, 549-558, Aug. 8, 1997). For experiments 30 μM MBP-Exon1-Q46 was incubated with 150 μg/mL thrombin in assay buffer (150 mM NaCl, 50 mM Tris pH 8.0) and 2 mM CaCl2 for 16 hours at 37° C. Aggregated Exon1-Q46 was pelleted by centrifugation for 5 minutes at 13,000 rpm in a bench top centrifuge and re-dissolved in the same volume of assay buffer. Test compounds were prepared by titration in DMSO at 11 concentrations from 63 μM to 2 nM. For the RBA, Exon1-Q46 protein aggregates and test compounds were pre-incubated in assay buffer for 20 minutes at room temperature, in 100 μL/well in a 96-well plate (pp, round bottom). Then, ligand was added in 50 μL/well and incubated for 60 minutes at 37° C. Final assay concentrations were 1 μM to 30 pM test compound, 1 μM Exon1-Q46 protein (equivalent monomer concentration) and 0.3 nM ligand [^3H3-methyl]-5-((5-methoxypyridin-2-yl)methoxy)-2-(pyrazin-2-yl)benzo[d]oxazole. Samples were transferred onto GF/B filter plates and washed 2× with 200 μL PBS using a Filtermate Harvester. After drying filter plates for 1 hour at 55° C., the back of the plates were sealed with foil and 30 μL/well scintillation fluid (Packard MicroScint 40) added, incubated for 15 minutes in the dark and counted in a MicroBeta reader. For analysis, replicate data from independent assay plates were normalized towards 0% and 100% inhibition using control wells of vehicle (0% inhibition) and 1 μM unlabelled [^3H3-methyl]-5-((5-methoxypyridin-2-yl)methoxy)-2-(pyrazin-2-yl)benzo[d]oxazole (100% inhibition). IC50 values were determined with a sigmoidal inhibition model with four variables (top, bottom, slope, IC50) in a global fit using the normalized replicate data.
The results for various example compounds were as provided in the table below (+++<100 nM; ++100−500 nM; +>500 nM; ND: not determined): […]

T1 sequence (P42858 with tags, fused parts or gaps with the stated changes): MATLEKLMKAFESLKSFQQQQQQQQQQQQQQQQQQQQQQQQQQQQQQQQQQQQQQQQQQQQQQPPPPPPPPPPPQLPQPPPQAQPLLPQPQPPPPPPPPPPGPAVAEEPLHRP

Structure (SMILES)	Mean Free Brain Fraction (%) [1] [%]	IC50 [2] [nM]
Cn1nc(N2Cc3cc(OCc4cc(Cl)c(F)cn4)ccc3C2=O)ccc1=O [Compound 2-3, 5-[(4-Chloro-5-fluoropyridin-2-yl)methoxy]-2-(1-methyl-6-oxo-1,6-dihydropyridazin-3-yl)-2,3-dihydro-1H-isoindol-1-one]	2.7	< 100
COc1cc(COc2ccc3c(c2)CN(c2ccc(=O)n(C)n2)C3=O)ncc1F [Compound 3-1, 5-[(5-Fluoro-4-methoxypyridin-2-yl)methoxy]-2-(1-methyl-6-oxo-1,6-di-hydropyridazin-3-yl)-2,3-dihydro-1H-isoindol-1-one]	9.7	< 100
COc1ccc(COc2ccc3c(c2)CN(c2ccc(=O)[nH]n2)C3=O)nc1 [Compound 6-1, 5-[(5-Methoxypyridin-2-yl)methoxy]-2-(6-oxo-1,6-dihydropyridazin-3-yl)-2,3-dihydro-1H-isoindol-1-one]	11.3	< 100
COc1ccc(COc2ccc3c(c2)CN(c2ccc(=O)n(CF)n2)C3=O)nc1 [Compound 8-1, 2-(1-(Fluoromethyl)-6-oxo-1,6-dihydropyridazin-3-yl)-5-((5-methoxypyridin-2-yl)methoxy)isoindolin-1-one]	7.4	< 100
COc1ccc(COc2ccc3c(c2)CN(c2ccc(=O)n(CCF)n2)C3=O)nc1 [Compound 8-2, 2-[1-(2-Fluoroethyl)-6-oxo-1,6-dihydropyridazin-3-yl]-5-[(5-methoxypyridin-2-yl)methoxy]-2,3-dihydro-1H-isoindol-1-one]	9.0	< 100
O=C1c2ccc(OCc3ccc(F)cn3)cc2CN1c1ccc(=O)[nH]n1 [Compound 9-1, 5-[(5-Fluoro-2-pyridyl)methoxy]-2-(6-oxo-1H-pyridazin-3-yl)isoindolin-1-one]	6.7	< 100
COc1cc(COc2ccc3c(c2)CN(c2ccc(=O)[nH]n2)C3=O)ncc1F [Compound 9-3, 5-((5-Fluoro-4-methoxypyridin-2-yl)methoxy)-2-(6-oxo-1,6-dihydropyridazin-3-yl)isoindolin-1-one]	5.2	< 100
COc1ccc(COc2cc(F)c3c(c2)CN(c2ccc(=O)n(C)n2)C3=O)nc1 [Compound 10-1, 7-Fluoro-5-[(5-methoxypyridin-2-yl)methoxy]-2-(1-methyl-6-oxo-1,6-di-hydropyridazin-3-yl)-2,3-dihydro-1H-isoindol-1-one]	14.3	< 100
COc1ccc(COc2cc(F)c3c(c2)CN(c2ccc(=O)[nH]n2)C3=O)nc1 [Compound 10-2, 7-Fluoro-5-[(5-methoxypyridin-2-yl)methoxy]-2-(6-oxo-1,6-dihydropyridazin-3-yl)-2,3-dihydro-1H-isoindol-1-one]	9.5	< 100
COc1ccc2c(c1)CN(c1ccc(OCc3cccnc3)nc1)C2=O [Compound 11-1, 5-Methoxy-2-{6-[(pyridin-3-yl)methoxy]pyridin-3-yl}-2,3-dihydro-1H-isoindol-1-one]	3.2	< 100
COc1ccc(COc2cc3c(cc2F)C(=O)N(c2ccc(=O)n(C)n2)C3)nc1 [Compound 12-1, 6-Fluoro-5-[(5-methoxypyridin-2-yl)methoxy]-2-(1-methyl-6-oxo-1,6-dihydropyridazin-3-yl)-2,3-dihydro-1H-isoindol-1-one]	7.1	< 100
COc1ccc(COc2ccc3c(c2F)CN(c2ccc(=O)n(C)n2)C3=O)nc1 [Compound 12-2, 4-Fluoro-5-[(5-methoxypyridin-2-yl)methoxy]-2-(1-methyl-6-oxo-1,6-dihydropyridazin-3-yl)-2,3-dihydro-1H-isoindol-1-one]	5.3	< 100
COc1ccc(COc2cc(F)c3c(c2)C(=O)N(c2ccc(=O)n(C)n2)C3)nc1 [Compound 12-3, 4-Fluoro-6-[(5-methoxypyridin-2-yl)methoxy]-2-(1-methyl-6-oxo-1,6-dihydropyridazin-3-yl)-2,3-dihydro-1H-isoindol-1-one]	5.4	< 100
COc1ccc(COc2cc3c(cc2F)CN(c2ccc(=O)n(C)n2)C3=O)nc1 [Compound 12-4, 5-Fluoro-6-[(5-methoxypyridin-2-yl)methoxy]-2-(1-methyl-6-oxo-1,6-dihydropyridazin-3-yl)-2,3-dihydro-1H-isoindol-1-one]	9.8	< 100
COc1ccc(COc2cnc3c(c2)CN(c2ccc(=O)n(C)n2)C3=O)nc1 [Compound 12-5, 6-{3-[(5-Methoxypyridin-2-yl)methoxy]-7-oxo-5H,6H,7H-pyrrolo[3,4-b]pyridin-6-yl}-2-methyl-2,3-dihydropyridazin-3-one]	37.0	< 100
Cn1nc(N2Cc3cc(OCc4ccc(OCCF)cn4)cnc3C2=O)ccc1=O [Compound 12-6, 6-(3-{[5-(2-Fluoroethoxy)pyridin-2-yl]methoxy}-7-oxo-5H,6H,7H-pyrrolo[3,4-b]pyridin-6-yl)-2-methyl-2,3-dihydropyridazin-3-one]	50.0	< 100
Cn1nc(N2Cc3cc(OCc4ccc(F)cn4)cnc3C2=O)ccc1=O [Compound 12-7, 6-{3-[(5-Fluoropyridin-2-yl)methoxy]-7-oxo-5H,6H,7H-pyrrolo[3,4-b]pyridin-6-yl}-2-methyl-2,3-dihydropyridazin-3-one]	67.8	< 100
COc1cnc(COc2cnc3c(c2)CN(c2ccc(=O)n(C)n2)C3=O)c(F)c1 [Compound 12-8, 6-{3-[(3-Fluoro-5-methoxypyridin-2-yl)methoxy]-7-oxo-5H,6H,7H-pyrrolo[3,4-b]pyridin-6-yl}-2-methyl-2,3-dihydropyridazin-3-one]	65.0	< 100
COc1ccc(COc2ccc3c(c2F)C(=O)N(c2ccc(=O)n(C)n2)C3)nc1 [Compound 12-10, 7-Fluoro-6-[(5-methoxypyridin-2-yl)methoxy]-2-(1-methyl-6-oxo-1,6-dihydropyridazin-3-yl)-2,3-dihydro-1H-isoindol-1-one]	16.4	< 100
COc1ccc(COc2cc3c(cc2F)C(=O)N(c2ccc(=O)[nH]n2)C3)nc1 [Compound 13-1, 6-Fluoro-5-((5-methoxypyridin-2-yl)methoxy)-2-(6-oxo-1,6-dihydropyridazin-3-yl)isoindolin-1-one]	6.6	< 100
